Test results from patent publication US20220000841A1, “INHIBITORS OF METALLO-BETA-LACTAMASES” (CENTRE NATIONAL DE LA RECHERCHE SCIENTIFIQUE, priority 2018, published 2022).

Legend:
[1] = tested on: K. pneumoniae SI-001 (blaVIM-1+); experiment: Broth microdilution MIC of meropenem in absence and presence of MBL inhibitor, SI-001; type: cell-based; conditions: MBL inhibitor fixed at 32 μg/ml, Mueller-Hinton broth, duplicate
Experimental: (§1) This method was performed in agreement with the CLSI recommendations (document M07-A10, 2015, “Methods for Dilution Antimicrobial Susceptibility Tests for Bacteria That Grow Aerobically”).
(§2) MIC values of meropenem (MEM) were determined in duplicate in Mueller-Hinton broth as recommended by CLSI (document M07-A10, 2015), in absence and presence of a fixed concentration of MBL inhibitor (32 μg/ml).

[2] = target: IMP-1 (Serratia marcescens, UniProt P52699); experiment: Enzymatic assay for determination of inhibition constants, reporter substrate method, purified IMP-1; type: biochemical; conditions: for % inhibition IMP-1: at 100 μM (maximal tested concentration); for Ki: isolated MBL, competitive inhibition model;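 as to all read-outs here: purified IMP-1 (1-70 nM) hydrolysing a reporter substrate, initial rates followed as absorbance change at 260, 300 or 482 nm in 50 mM HEPES pH 7.5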
Chain of IMP-1 (P52699 19-246, looked up, species assumed): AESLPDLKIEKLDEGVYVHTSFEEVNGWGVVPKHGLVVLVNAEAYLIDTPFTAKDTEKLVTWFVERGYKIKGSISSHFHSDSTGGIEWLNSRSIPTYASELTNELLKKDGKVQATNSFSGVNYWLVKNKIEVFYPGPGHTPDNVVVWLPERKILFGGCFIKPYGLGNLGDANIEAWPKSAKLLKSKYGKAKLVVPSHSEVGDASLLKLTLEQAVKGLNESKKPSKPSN

[3] = target: VIM-2 (Escherichia coli, UniProt Q5U7L7); experiment: Enzymatic assay for determination of inhibition constants, reporter substrate method, purified VIM-2; type: biochemical; conditions: for Ki: isolated MBL, competitive inhibition model, read-out: Ki VIM-2; for % inhibition VIM-2: at 100 μM (maximal tested concentration);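 as to all read-outs here: purified VIM-2 hydrolysing a reporter substrate (imipenem, meropenem, cefotaxime or nitrocefin), reaction rate read as absorbance change, HEPES 50 mM at pH 7.5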
Experimental: (§3) The reaction rate was measured as the variation of absorbance observed upon substrate hydrolysis in a UV-Vis spectrophotometer or microplate reader at a wavelength of 300 nm (imipenem, meropenem), 260 nm (cefotaxime) or 482 nm (nitrocefin) in 50 mM HEPES buffer (pH 7.5) and in the presence of a purified MBL enzyme (such as VIM-1, VIM-2, VIM-4, NDM-1 and IMP-1, at a final concentration ranging 1-70 nM).
(§4) The inhibition constants (Ki) were determined on the basis of a model of competitive inhibition by analyzing the dependence of the ratio v0/vi (v0, hydrolysis velocity in the absence of inhibitor; vi, hydrolysis velocity in the presence of inhibitor) as a function of [I] as already described [Docquier J. D., Lamotte-Brasseur J., Galleni M., Amicosante G., Frère J. M., Rossolini G. M. (2003) J. Antimicrob. […] The slope of the plot of v0/vi vs [I], which corresponds to Km^S/(Km^S+[S])Ki (where Km^S is the Km value of the reporter substrate and [S] its concentration in the reaction mixture) and allowed the calculation of the Ki value. Alternatively, a Dixon plot analysis was carried out, by measuring the initial hydrolysis rates in the presence of variable concentrations of inhibitor and substrate.

[4] = tested on: K. pneumoniae S1-002 (blaVIM-4+); experiment: Broth microdilution MIC of meropenem in absence and presence of MBL inhibitor, S1-002; type: cell-based; conditions: MBL inhibitor fixed at 32 μg/ml, Mueller-Hinton broth, duplicate
Experimental: as §1, §2

[5] = target: NDM-1 (Klebsiella pneumoniae, UniProt C7C422); experiment: Enzymatic assay for determination of inhibition constants, reporter substrate method, purified NDM-1; type: biochemical; conditions: for % inhibition NDM-1: at 100 μM (maximal tested concentration); for Ki: isolated MBL, competitive inhibition model;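 as to all read-outs here: purified enzyme activity followed as absorbance change from reporter substrate hydrolysis on a UV-Vis spectrophotometer or plate reader, 50 mM HEPES pH 7.5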
Chain of NDM-1 (C7C422 29-270, looked up, species assumed): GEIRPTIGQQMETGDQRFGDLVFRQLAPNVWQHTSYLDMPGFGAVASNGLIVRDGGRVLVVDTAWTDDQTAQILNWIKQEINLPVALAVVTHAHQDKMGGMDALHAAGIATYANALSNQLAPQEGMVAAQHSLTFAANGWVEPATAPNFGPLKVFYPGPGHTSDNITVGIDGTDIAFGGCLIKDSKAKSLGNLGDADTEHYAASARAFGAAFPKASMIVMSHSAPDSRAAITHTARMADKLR

[6] = target: VIM-1 (Pseudomonas aeruginosa, UniProt A0A0F7KYQ8); experiment: Enzymatic assay for determination of inhibition constants, reporter substrate method, purified VIM-1; type: biochemical; conditions: for Ki: isolated MBL, competitive inhibition model;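 as to all read-outs here: initial hydrolysis rates of a reporter β-lactam (imipenem, meropenem, cefotaxime or nitrocefin) followed by absorbance change, purified enzyme at 1–70 nM in 50 mM HEPES pH 7.5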
Experimental: as §3, §4

[7] = target: VIM-4 (Pseudomonas aeruginosa, UniProt Q8KRJ3); experiment: Enzymatic assay for determination of inhibition constants, reporter substrate method, purified VIM-4; type: biochemical; conditions: at 100 μM (maximal tested concentration);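 also: purified VIM-4 (1-70 nM) in 50 mM HEPES pH 7.5, reporter substrate hydrolysis rate tracked by absorbance change (nitrocefin 482 nm, imipenem or meropenem 300 nm, cefotaxime 260 nm)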

| SMILES | MIC potentiation of meropenem (x.log2 dilutions), K. pneumoniae SI-001 (blaVIM-1+) [1] [log2 dilutions] | % inhibition IMP-1 [2] [% at 100 μM] | Ki [3] [µM] | MIC potentiation of meropenem (x.log2 dilutions), K. pneumoniae S1-002 (blaVIM-4+) [4] [log2 dilutions] | % inhibition NDM-1 [5] [% at 100 μM] | Ki [6] [µM] | Ki [2] [µM] | % inhibition VIM-2 [3] [% at 100 μM] | Ki [5] [µM] | % inhibition VIM-1 ([6]; at 100 μM (maximal tested concentration)) [% at 100 μM] | % inhibition VIM-4 [7] [% at 100 μM] |
| --- | --- | --- | --- | --- | --- | --- | --- | --- | --- | --- | --- |
| O=C(O)CCSCCn1c(-c2ccccc2)n[nH]c1=S [Compound 66, [2-(3-Phenyl-5-thioxo-1,4-dihydro-1,2,4-triazol-4-yl)ethylthio]propionic acid] | 3 | 65 | 1 to 10 | ≥4 | 60 | 1 to 10 | – | – | – | – | – |
| O=C(O)C(CCCn1c(-c2ccccc2)n[nH]c1=S)NCc1cccc(O)c1O (centres unmarked) [Compound 67] | 2 | – | – | 2 | – | – | > 100 | 55 | > 100 | 70 | 60 |
| O=C(O)C(CCCn1c(-c2ccccc2)n[nH]c1=S)N(Cc1ccccc1)Cc1ccccc1 (centres unmarked) [Compound 68, 2-[Bis(phenylmethyl)amino]-5-(3-phenyl-5-sulfanylidene-4,5-dihydro-1H-1,2,4-triazol-4-yl)pentanoic acid] | 2 | – | – | 2 | – | > 100 | > 100 | 65 | > 100 | – | 65 |
| O=C(O)C(CCCn1c(-c2ccccc2)n[nH]c1=S)N(Cc1c[nH]cn1)Cc1c[nH]cn1 (centres unmarked) [Compound 69, 2-[Bis(1H-imidazol-5-ylmethyl)amino]-5-(3-phenyl-5-sulfanylidene-4,5-dihydro-1H-1,2,4-triazol-4-yl)pentanoic acid] | ≥4 | – | < 1 | ≥4 | 85 | < 1 | > 100 | – | – | – | – |
| S=c1[nH]nc(-c2ccccc2)n1CCSc1ccccc1 [Compound 70, 5-Phenyl-4-[2-(phenylthio)ethyl]-2,4-dihydro-1,2,4-triazole-3-thione] | ≥4 | 84 | 1 to 10 | ≥4 | – | 1 to 10 | – | – | 10 to 100 | – | – |
| Fc1ccccc1CSCCn1c(-c2ccccc2)n[nH]c1=S [Compound 71, 4-[2-(2-Fluorobenzylsulfanyl)ethyl]-3-phenyl-4,5-dihydro-1H-1,2,4-triazole-5-thione] | ≥4 | 97 | < 1 | 3 | – | < 1 | – | – | 10 to 100 | – | – |
| Fc1ccc(CSCCn2c(-c3ccccc3)n[nH]c2=S)cc1 [Compound 72, 4-[2-(4-Fluorobenzylsulfanyl)ethyl]-3-phenyl-4,5-dihydro-1H-1,2,4-triazole-5-thione] | 1 | 96 | < 1 | 3 | – | 1 to 10 | – | – | 1 to 10 | – | – |
| Fc1ccc(CSCCn2c(-c3ccccc3)n[nH]c2=S)c(F)c1 [Compound 73, 4-[2-(2,4-Difluorobenzylsulfanyl)ethyl]-3-phenyl-4,5-dihydro-1H-1,2,4-triazole-5-thione] | 3 | – | < 1 | ≥4 | – | 1 to 10 | 1 to 10 | – | 10 to 100 | – | – |
| O=[N+]([O-])c1ccc(CSCCn2c(-c3ccccc3)n[nH]c2=S)cc1 [Compound 74, 4-[2-(4-Nitrobenzylsulfanyl)ethyl]-3-phenyl-4,5-dihydro-1H-1,2,4-triazole-5-thione] | 3 | 92 | 1 to 10 | ≥4 | 95 | < 1 | – | – | – | – | – |
| O=[N+]([O-])c1ccccc1CSCCn1c(-c2ccccc2)n[nH]c1=S [Compound 75, 4-[2-(2-Nitrobenzylsulfanyl)ethyl]-3-phenyl-4,5-dihydro-1H-1,2,4-triazole-5-thione] | 3 | 72 | < 1 | ≥4 | 69 | < 1 | – | – | – | – | – |
| O=[N+]([O-])c1ccc(O)c(CSCCn2c(-c3ccccc3)n[nH]c2=S)c1 [Compound 76, 4-[2-(2-Hydroxy-5-Nitrobenzylsulfanyl)ethyl]-3-phenyl-4,5-dihydro-1H-1,2,4-triazole-5-thione] | ≥4 | 62 | < 1 | 2 | 77 | < 1 | – | – | – | – | – |
| S=c1[nH]nc(-c2ccccc2)n1CCSCCc1ccccc1 [Compound 77, 4-[2-(2-Phenylethylsulfanyl)ethyl]-3-phenyl-4,5-dihydro-1H-1,2,4-triazole-5-thione] | 3 | 89 | 1 to 10 | ≥4 | 92 | < 1 | – | – | – | – | – |
| O=C(O)C(CSCCn1c(-c2ccccc2)n[nH]c1=S)c1ccccc1 (centres unmarked) [Compound 78, 2-Phenyl-3-[2-(3-phenyl-5-thioxo-1,4-dihydro-1,2,4-triazol-4-yl)ethylthio]-propionic acid] | 3 | – | < 1 | 2 | – | < 1 | 10 to 100 | – | 1 to 10 | – | – |
| Cc1ccccc1-c1n[nH]c(=S)n1CCSCc1ccccc1 [Compound 80, 4-[2-(Benzylthio)ethyl]-5-(o-tolyl)-2,4-dihydro-1,2,4-triazole-3-thione] | 2 | – | < 1 | 3 | – | < 1 | 10 to 100 | – | 10 to 100 | – | – |
| O=C(O)C(CSCCn1c(-c2cccc(-c3ccccc3)c2)n[nH]c1=S)c1ccccc1 (centres unmarked) [Compound 81, 3-{2-[3-(3-Biphenylyl)-5-thioxo-1,4-dihydro-1,2,4-triazol-4-yl]ethylthio}-hydratropic acid] | 2 | 56 | < 1 | 3 | 77 | 1 to 10 | – | – | – | – | – |
